# According to patent US10617705B1, “Isoquercitrin compositions” (priority 2019, dated 2020):
# Experiment: Stability of isoquercitrin (or catechin) in solution with L-arginine and sodium ascorbate at 50° C., by HPLC
# Type: physicochemical
# Settings: aqueous solution with L-arginine and sodium ascorbate; for amount of intact compound remaining, of the initial amount in the solution: HPLC
# Method: An exemplary isoquercitrin/L-arginine mixture was prepared by mixing 0.01 mol isoquercitrin with an aqueous solution containing 0.02 mol L-arginine, heating the mixture to 80° C. until the isoquercitrin dissolved completely, and adding 0.001 mol sodium ascorbate. After cooling, the stability of isoquercitrin was tested by heating the mixture to 50° C. and quantifying by HPLC the amount of intact isoquercitrin remaining after 0 h, 5 h, and 24 h.
compound,measurement,setting,value
O=c1c(O[C@@H]2O[C@H](CO)[C@@H](O)[C@H](O)[C@H]2O)c(-c2ccc(O)c(O)c2)oc2cc(O)cc(O)c12 [isoquercitrin],"amount of intact compound remaining, of the initial amount in the solution",5 h at 50° C.,100%
same,"amount of intact compound remaining, of the initial amount in the solution",24 h at 50° C.,98.1%
same,compound degraded,after 24 h at 50° C.,1.9%
